Experimental data: patent publication US8664405B2, “Sulfonic acid salt compound of 4-carbamoyl-5-hydroxy-imidazole derivative” (Fujifilm Corporation, priority 2007, dated 2014)

Columns and labels:
[1] = Evaluation of the storage stability in crystalline state by visual observation; format: physicochemical; conditions: autoclave at 120° C. under a saturated vapor of water for 30 minutes
Experimental: (Evaluation 1) Evaluation of the Storage Stability in Crystalline State by Visual Observation
SM-108 [2] obtained in Example 1 and benzensulfonic acid salt of SM-108 [5] obtained in Example 2 were placed in an autoclave at 120° C. under a saturated vapor of water for 30 minutes.

[2] = clinical trial by Sumitomo Pharmaceuticals in 1980s; cited from earlier work
[3] = Storage stability (general statements); format: physicochemical; conditions: solid; no test conditions given
[4] = Evaluation of the storage stability in an aqueous solution (UV-Vis spectra); format: physicochemical; conditions: dilute aqueous solution, room temperature, after 60 days
Experimental: (Evaluation 2) Evaluation of the Storage Stability in an Aqueous Solution
SM-108 obtained in Example 1 and hydrochloric acid salt of SM-108 obtained in Example 3 were dissolved into water to dilute aqueous solutions. UV-Vis spectra of those solutions were recorded just after making solutions and after leaving at room temperature for 60 days.

Structure (SMILES)	colour of the crystalline substance after treatment (visual observation) [1]	clinical effect against MDS and CML [2]	storage stability [3]	change of UV-Vis absorption spectrum of aqueous solution [4]	colour of aqueous solution [4]
NC(=O)c1nc[nH]c1O [SM-108, 4-Carbamoyl-5-hydroxyimidazole]	turned indigo-blue	excellent effects	poor storage stability	a broad absorption appeared in the visible-light region	–
NC(=O)c1nc[nH]c1O.O=S(=O)(O)c1ccccc1 [benzensulfonic acid salt of SM-108 [5], benzenesulfonic acid salt of SM-108]	remained colorless	–	–	–	–
Cl.NC(=O)c1nc[nH]c1O [hydrochloric acid salt of SM-108]	–	–	–	did not change at all	remained colorless
